Source: PubChem BioAssay AID2060625 (Molecular Pharmacology Branch, DTP, NCI, 2025)
Values joined by “and” are separate entries in the source; they are usually repeats but may differ in a detail not shown here. Identical values can stand only once.

Tested on: 186277-243-T-J2-PDC spheroids with HUVEC/MSC, viability
Assay: Anticancer human tumor 186277-243-T-J2-PDC patient-derived colon adenocarcinoma cell line growth inhibition [CLK]
Conditions: for viability, T/C: stronger effect = lower value; active means viability on the fitted dose curve at most 10% of control; inactive means the rest
How it was run: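 Patient-derived tumor cells grown as complex spheroids with HUVEC endothelial cells and mesenchymal stem cells, treated with drug combinations. Concentrations descend in half-log steps from near clinical Cmax, or from 10 microM if Cmax unknown.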
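Further: compound exposure lasted seven days before readout.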
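Wherever viability, T/C is given: 100% = DMSO vehicle control wells.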

C=C(F)C(=O)N1CCN(c2nc(OCC3CCCN3C)nc3c2CCN(c2cccc4cccc(Cl)c24)C3)CC1CC#N (centres undefined) + CNC(=O)c1ccc(Nc2nc(OC3CCCC3)c3c(-c4ccc5nc(C)oc5c4)c[nH]c3n2)c(OC)c1
active: viability, T/C (second compound 0.0316 µM, first compound 10 µM) 3.01% | viability, T/C (second compound 0.1 µM, first compound 10 µM) 2.67% | viability, T/C (second compound 0.316 µM, first compound 10 µM) 0.4% | viability, T/C (second compound 1 µM, first compound 10 µM) 1.8% | viability, T/C (second compound 3.16 µM, first compound 10 µM) 0.54% | viability, T/C (second compound 10 µM, first compound 10 µM) 0.4%
5.73 µM: IC50 (curve of first compound, second compound 0.0316 µM)
4.22 µM: IC50 (curve of first compound, second compound 0.1 µM)
inactive: viability, T/C (second compound 0.0316 µM, first compound 0.0316 µM) 98% | viability, T/C (second compound 0.0316 µM, first compound 0.1 µM) 96.1% | viability, T/C (second compound 0.0316 µM, first compound 0.316 µM) 99.2% | viability, T/C (second compound 0.0316 µM, first compound 1 µM) 93.8% | viability, T/C (second compound 0.0316 µM, first compound 3.16 µM) 114% | viability, T/C (second compound 0.1 µM, first compound 0.0316 µM) 68.4% | viability, T/C (second compound 0.1 µM, first compound 0.1 µM) 70.6% | viability, T/C (second compound 0.1 µM, first compound 0.316 µM) 69.8% | viability, T/C (second compound 0.1 µM, first compound 1 µM) 61.2% | viability, T/C (second compound 0.1 µM, first compound 3.16 µM) 65.9% | viability, T/C (second compound 0.316 µM, first compound 0.0316 µM) 45.1% | viability, T/C (second compound 0.316 µM, first compound 0.1 µM) 48.2% | viability, T/C (second compound 0.316 µM, first compound 0.316 µM) 42.7% | viability, T/C (second compound 0.316 µM, first compound 1 µM) 46% | viability, T/C (second compound 0.316 µM, first compound 3.16 µM) 48.1% | viability, T/C (second compound 1 µM, first compound 0.0316 µM) 36% | viability, T/C (second compound 1 µM, first compound 0.1 µM) 39.8% | viability, T/C (second compound 1 µM, first compound 0.316 µM) 34.5% | viability, T/C (second compound 1 µM, first compound 1 µM) 35.9% | viability, T/C (second compound 1 µM, first compound 3.16 µM) 36.7% | viability, T/C (second compound 3.16 µM, first compound 0.0316 µM) 37.3% | viability, T/C (second compound 3.16 µM, first compound 0.1 µM) 35.2% | viability, T/C (second compound 3.16 µM, first compound 0.316 µM) 32.3% | viability, T/C (second compound 3.16 µM, first compound 1 µM) 36.7% | viability, T/C (second compound 3.16 µM, first compound 3.16 µM) 34.1% | viability, T/C (second compound 10 µM, first compound 0.0316 µM) 37.3% | viability, T/C (second compound 10 µM, first compound 0.1 µM) 35.4% | viability, T/C (second compound 10 µM, first compound 0.316 µM) 37.9% | viability, T/C (second compound 10 µM, first compound 1 µM) 38% | viability, T/C (second compound 10 µM, first compound 3.16 µM) 27.1%
< 0.0316 µM: IC50 (curve of first compound, second compound 0.316 µM) | IC50 (curve of first compound, second compound 1 µM) | IC50 (curve of first compound, second compound 3.16 µM) | IC50 (curve of first compound, second compound 10 µM)

O=C(c1cc(Cc2n[nH]c(=O)c3ccccc23)ccc1F)N1CCN(C(=O)C2CC2)CC1
inactive: viability, T/C (compound 0.0316 µM) 102% | viability, T/C (compound 0.1 µM) 90% and 99.4% | viability, T/C (compound 0.316 µM) 101% and 109% | viability, T/C (compound 1 µM) 114% and 110% | viability, T/C (compound 3.16 µM) 118% and 119% | viability, T/C (compound 10 µM) 126% and 103%
> 10 µM: IC50 (curve of compound)
